# In PubChem BioAssay (NCI):
#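 Briefly, cells in 96-well plates were exposed to five compound concentrations for 48 h, and endpoints were estimated by linear interpolation. GI50 is the concentration that inhibits growth by half. TGI marks complete inhibition of growth.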
# Legend:
# Experiment in all cases: NCI-60 cell line screen, 48 h
# DU-145 prostate = system: DU-145 prostate
# HOP-92 NSCLC = system: HOP-92 NSCLC
# HT29 colon = system: HT29 colon
# LOX IMVI melanoma = system: LOX IMVI melanoma
# MDA-MB-231 breast = system: MDA-MB-231 breast
# OVCAR-8 ovarian = system: OVCAR-8 ovarian
# SK-MEL-5 melanoma = system: SK-MEL-5 melanoma
# U251 CNS = system: U251 CNS
SMILES,GI50 (DU-145 prostate) [µM],TGI (DU-145 prostate) [µM],GI50 (HOP-92 NSCLC) [µM],TGI (HOP-92 NSCLC) [µM],GI50 (HT29 colon) [µM],TGI (HT29 colon) [µM],GI50 (LOX IMVI melanoma) [µM],TGI (LOX IMVI melanoma) [µM],GI50 (MDA-MB-231 breast) [µM],TGI (MDA-MB-231 breast) [µM],GI50 (OVCAR-8 ovarian) [µM],TGI (OVCAR-8 ovarian) [µM],GI50 (SK-MEL-5 melanoma) [µM],TGI (SK-MEL-5 melanoma) [µM],GI50 (U251 CNS) [µM],TGI (U251 CNS) [µM]
CC(C)C[C@H](NC(=O)[C@@H](O)[C@H](N)Cc1ccc([N+](=O)[O-])cc1)C(=O)O,> 25,> 25,> 25,> 25,> 25,> 25,> 25,> 25,> 25,> 25,> 25,> 25,> 25,> 25,> 25,> 25
S=C(Nc1cc(Cl)c(Cl)cc1Cl)SCc1ccccc1,,> 100,,75.8,,43.7,,,,29.6,,51.5,,37.7,,52.7
O=C(OCCBr)c1ccc(Cl)c([N+](=O)[O-])c1,2.31,5.27,16,33.2,2.51,5.14,10.2,26,8.3,21.6,17.3,35.2,14.9,28.5,1.71,3.2
Cc1c(Cl)cccc1NC1=C(Cl)C(=O)N(Cc2ccccc2)C1=O,3.67,17.1,1.56,14.9,,,4.83,47.8,,,9.23,23.8,11.7,23.9,6.24,20.1
COc1cc(C2C3=C(COC3=O)Nc3cc4c(cc32)CCC4)cc2c1OCO2 (stereo not drawn),0.0411,0.296,12.7,40.5,0.0299,0.845,0.0496,12.1,0.0577,5.11,0.0399,1.99,0.0382,0.264,0.0452,4.61
CCC(/C=C/c1ccccc1)=N\Nc1ccc(Cl)c(Cl)c1,,> 100,,58.2,,> 100,,> 100,,55.7,,39.6,,30,,> 100
CCOc1ccccc1/C=N\N=C(\N)N/N=C/c1ccccc1OCC,2.84,> 100,,,2.5,> 100,4.68,> 100,4.69,> 100,3.76,> 100,1.63,> 100,3.35,> 100
CC(C)c1ccc(Nc2nccc(-c3cnn4ncccc34)n2)cc1,0.809,> 9.19,0.503,1.59,0.6,3.24,0.209,> 7.75,0.726,> 17.9,0.555,3.74,0.218,0.749,0.559,> 9.71
CCCc1cc(=O)n2c(C(=O)Nc3ccccc3OC)c(C(=O)Nc3ccc(F)cc3)sc2n1,13.3,34.6,1.43,4.73,44.5,> 160,5.18,38.1,3.29,11.2,5.67,20.7,48.6,> 160,5.88,21.5
CC1(C)CC[C@]2(C(=O)N3CCOCC3)CC[C@]3(C)C(=CC[C@@H]4[C@@]5(C)C/C(=C/c6ccncc6)C(=O)C(C)(C)[C@@H]5CC[C@]43C)[C@@H]2C1,2.77,36.5,0.0347,11.6,0.912,54.5,1.24,2.72,3.06,41.1,3.52,> 100,1.48,3.01,1.89,10.3
COc1cc(C(=O)/C=C/c2cccnc2Nc2ccccc2)cc(OC)c1OC,0.723,1.94,0.392,2.07,0.514,2.15,0.499,1.82,1.4,3.09,1.27,3.49,1.34,2.64,1.12,2.39
Nc1c(C(=O)Nc2ccccc2)sc2nc3c(cc12)CN(Cc1ccccc1)CC3,14.8,> 100,2.48,20.4,24.7,> 100,10.5,> 100,5.81,> 100,16.8,> 100,9.58,> 100,13.9,> 100
CN(C)CC1CCCCCC(CN(C)C)C1=O (stereo not drawn),3.19,12.4,2.69,8.11,1.35,2.78,7.68,25,8.68,23.8,2.61,8.54,12.2,25.1,11.1,25.6
COC(=O)C1=C(OC(=O)c2ccc(Cl)cc2)C(C(=O)OC)[C@@]2(O)[C@@H](C(=O)OC)C(c3ccccc3Cl)C[C@@H]1[C@@H]2C(=O)OC (stereo partly drawn),7.46,> 100,47.2,> 100,6.57,> 100,,,4.57,17.5,2.61,12.8,5.19,26.5,3.4,27
Cn1cc(-c2ccc(-c3cn(C)c4ccc(Cl)cc34)s2)c2cc(Cl)ccc21,> 100,> 100,,,> 100,> 100,> 100,> 100,> 100,> 100,> 100,> 100,> 100,> 100,> 100,> 100
